Laboratory results published in patent US7655629B2, “Peptides and their use for the treatment of HIV infections” (priority 2002, dated 2010).
pIC50: −log10 of the molar value. Positions of bridges follow the written chain, without caps; N, C: chain ends. Non-standard residues stand in square brackets, D forms with d. Residues, ends and D or L forms follow the SMILES beside them. Tic = O=C(O)[C@@H]1Cc2ccccc2CN1

The compounds below were run on X4-tropic HIV-1 NL4-3. Details: read-out: IC50 NL4-3; P4-CCR5 cells, HIV-1 NL4-3, peptide 2 h before infection, readout three days after infection.
Description: These cells contain the β-galactosidase reporter gene under the control of the HIV-1 promoter. Thus, activation of the β-galactosidase reporter gene allows to measure the efficiency of HIV-1 infection and thus to quantitate the potency of HIV-1 inhibitors (Detheux M. et al., 2000; Journal of Experimental Medicine 192, 1501-1508; Münch et al., 2002; Antimicrobial Agents and Chemotherapy 46, 982-990).
To perform a typical infection assay, P4-CCR5 cells (Charneau et al., 1994; Journal of Molecular Biology 241, 651-662; Charneau et al., Virology. 1994 205, 247-53) were kept in RPMI 1640 medium supplemented with 10 volume % FCS. This cell line coexpresses CD4 and both HIV-1 coreceptors CCR5 and CXCR4 and contains the β-galactosidase gene under the control of the HIV-1 promoter. Virus stocks were generated by the calcium coprecipitation method as described (Detheux et al., J Exp Med. 192:1501-8; 2000), and the p24 antigen levels were quantitated with an HIV p24 ELISA kit obtained through the NIH AIDS Reagent Program. Cells were seeded in flat-bottomed 96-well dishes, cultured overnight, and incubated with the different doses of peptide for 2 h before infection with virus containing 1 ng of p24 antigen in a total volume of […] of medium. After overnight incubation, cells were washed twice and cultivated in fresh culture medium without inhibitory peptide. Three days after infection the cells were lysed, and infectivity was quantitated using the Galacto-Light Plus™ chemiluminescence reporter assay kit (Tropix, Bedford, Mass.) as recommended by the manufacturer. All infections were performed in quintuplicate.

Compound | pIC50
CC[C@H](C)[C@H](NC(=O)[C@H](C)NC(=O)[C@H](CCC(=O)O)NC(=O)[C@@H](N)CC(C)C)C(=O)N1CCC[C@H]1C(=O)N[C@@H](CCSC)C(=O)NCC(=O)N[C@H](C(=O)N1CCC[C@H]1C(=O)N1CCC[C@@H]1C(=O)N[C@@H](CCC(=O)O)C(=O)N[C@H](C(=O)N[C@@H](Cc1ccccc1)C(=O)N[C@@H](Cc1ccccc1)C(=O)NCC(=O)N[C@@H](CCCCN)C(=O)N1CCC[C@H]1C(=O)N[C@@H](Cc1ccccc1)C(=O)N[C@H](C(=O)N[C@@H](Cc1ccccc1)C(=O)O)C(C)C)C(C)C)[C@@H](C)CC [VIR-320, LEAIPMGIPpEVFFGKPFVF] (H-LEAIPMGIP[dP]EVFFGKPFVF-OH) | 6.56
H-LEAIPISIPPEVFFGKPFVF-OH [VIR-284] | 6.55
CC[C@H](C)[C@H](NC(=O)[C@H](CCCCN)NC(=O)[C@H](CCC(=O)O)NC(=O)[C@@H](N)CC(C)C)C(=O)N1CCC[C@H]1C(=O)N[C@@H](CCSC)C(=O)NCC(=O)N[C@H](C(=O)N1CCC[C@H]1C(=O)N1CCC[C@@H]1C(=O)N[C@@H](CCC(=O)O)C(=O)N[C@@H](Cc1ccccc1)C(=O)N[C@@H](CC(C)C)C(=O)N[C@@H](Cc1ccccc1)C(=O)NCC(=O)N[C@@H](CCCCN)C(=O)N1CCC[C@H]1C(=O)N[C@@H](Cc1ccccc1)C(=O)N[C@H](C(=O)N[C@@H](Cc1ccccc1)C(=O)O)C(C)C)[C@@H](C)CC [VIR-418, LEKIPMGIPpEFLFGKPFVF] (H-LEKIPMGIP[dP]EFLFGKPFVF-OH) | 6.30
CC[C@H](C)[C@H](NC(=O)[C@H](C)NC(=O)[C@H](CCC(=O)O)NC(=O)[C@@H](N)CC(C)C)C(=O)N1CCC[C@H]1C(=O)N[C@@H](CCSC)C(=O)NCC(=O)N[C@H](C(=O)N1CCC[C@H]1C(=O)N1CCC[C@@H]1C(=O)N[C@@H](CCC(=O)O)C(=O)N[C@@H](Cc1ccccc1)C(=O)N[C@@H](CC(C)C)C(=O)N[C@@H](Cc1ccccc1)C(=O)NCC(=O)N[C@@H](CCCCN)C(=O)N1CCC[C@H]1C(=O)N[C@@H](Cc1ccccc1)C(=O)N[C@H](C(=O)N[C@@H](Cc1ccccc1)C(=O)O)C(C)C)[C@@H](C)CC [VIR-416, LEAIPMGIPpEFLFGKPFVF] (H-LEAIPMGIP[dP]EFLFGKPFVF-OH) | 6.43
CC[C@H](C)[C@H](NC(=O)[C@H](C)NC(=O)[C@H](CCC(=O)O)NC(=O)[C@@H](N)CC(C)C)C(=O)N1CCC[C@H]1C(=O)N[C@@H](CCSC)C(=O)N[C@@H](CO)C(=O)N[C@H](C(=O)N1CCC[C@H]1C(=O)N1CCC[C@@H]1C(=O)N[C@@H](CCC(=O)O)C(=O)N[C@@H](Cc1ccccc1)C(=O)N[C@@H](CC(C)C)C(=O)N[C@@H](Cc1ccccc1)C(=O)NCC(=O)N[C@@H](CCCCN)C(=O)N1CCC[C@H]1C(=O)N[C@@H](Cc1ccccc1)C(=O)N[C@@H](Cc1ccccc1)C(=O)N[C@H](C(=O)N[C@@H](Cc1ccccc1)C(=O)O)C(C)C)[C@@H](C)CC [VIR-380, LEAIPMSIPpEFLFGKPFFVF] (H-LEAIPMSIP[dP]EFLFGKPFFVF-OH) | 6.27
CC[C@H](C)[C@H](NC(=O)[C@H](C)NC(=O)[C@H](CCC(=O)O)NC(=O)[C@@H](N)CC(C)C)C(=O)N1CCC[C@H]1C(=O)N[C@@H](CCSC)C(=O)N[C@@H](CO)C(=O)N[C@@H](C)C(=O)N1CCC[C@H]1C(=O)N1CCC[C@@H]1C(=O)N[C@@H](CCC(=O)O)C(=O)N[C@@H](Cc1ccccc1)C(=O)N[C@@H](CC(C)C)C(=O)N[C@@H](Cc1ccccc1)C(=O)NCC(=O)N[C@@H](CCCCN)C(=O)N1CCC[C@H]1C(=O)N[C@@H](Cc1ccccc1)C(=O)N[C@H](C(=O)N[C@@H](Cc1ccccc1)C(=O)O)C(C)C [VIR-396, LEAIPMSAPpEFLFGKPFVF] (H-LEAIPMSAP[dP]EFLFGKPFVF-OH) | 6.20
CC[C@H](C)[C@H](NC(=O)[C@H](CC(=O)O)NC(=O)[C@H](CCC(=O)O)NC(=O)[C@@H](N)CC(C)C)C(=O)N1CCC[C@H]1C(=O)N[C@@H](CCSC)C(=O)NCC(=O)N[C@H](C(=O)N1CCC[C@H]1C(=O)N1CCC[C@@H]1C(=O)N[C@@H](CCC(=O)O)C(=O)N[C@H](C(=O)N[C@@H](C)C(=O)N[C@@H](Cc1ccccc1)C(=O)N[C@@H](CC(N)=O)C(=O)N[C@@H](CCCCN)C(=O)N1CCC[C@H]1C(=O)N[C@@H](Cc1ccccc1)C(=O)N[C@H](C(=O)N[C@@H](Cc1ccccc1)C(=O)O)C(C)C)C(C)C)[C@@H](C)CC [VIR-326, LEDIPMGIPpEVAFNKPFVF] (H-LEDIPMGIP[dP]EVAFNKPFVF-OH) | 6.02
CC[C@H](C)[C@H](NC(=O)[C@H](C)NC(=O)[C@H](CCC(=O)O)NC(=O)[C@@H](N)CC(C)C)C(=O)N1CCC[C@H]1C(=O)N[C@H]1CSSC[C@@H](C(=O)N[C@H](C(=O)N[C@@H](C)C(=O)N[C@@H](Cc2ccccc2)C(=O)N[C@@H](CC(N)=O)C(=O)N[C@@H](CCCCN)C(=O)N2CCC[C@H]2C(=O)N[C@@H](Cc2ccccc2)C(=O)N[C@H](C(=O)N[C@@H](Cc2ccccc2)C(=O)O)C(C)C)C(C)C)NC(=O)[C@H]2CCCN2C(=O)[C@@H]2CCCN2C(=O)[C@H]([C@@H](C)CC)NC(=O)CNC1=O [VIR-355, LEAIPCGIPpCVAFNKPFVF] (H-LEAIPCGIP[dP]CVAFNKPFVF-OH; disulfide 6-11) | 6.24
CC[C@H](C)[C@H](NC(=O)[C@H](C)NC(=O)[C@H](CCC(=O)O)NC(=O)[C@@H](N)CC(C)C)C(=O)N1CCC[C@H]1C(=O)N[C@@H](CCSC)C(=O)N[C@@H](CO)C(=O)N[C@H](C(=O)N1CCC[C@H]1C(=O)N1CCC[C@@H]1C(=O)N[C@@H](CCC(=O)O)C(=O)N[C@@H](Cc1ccccc1)C(=O)N[C@@H](CC(C)C)C(=O)N[C@@H](Cc1ccccc1)C(=O)NCC(=O)N[C@@H](CCCCN)C(=O)N1CCC[C@H]1C(=O)N[C@@H](C)C(=O)N[C@@H](Cc1ccccc1)C(=O)N[C@H](C(=O)N[C@@H](Cc1ccccc1)C(=O)O)C(C)C)[C@@H](C)CC [VIR-376, LEAIPMSIPpEFLFGKPAFVF] (H-LEAIPMSIP[dP]EFLFGKPAFVF-OH) | 6.25
CC[C@H](C)[C@H](NC(=O)[C@H](C)NC(=O)[C@H](CCC(=O)O)NC(=O)[C@@H](N)CC(C)C)C(=O)N1CCC[C@H]1C(=O)N[C@@H](CCSC)C(=O)NCC(=O)N[C@H](C(=O)N1CCC[C@H]1C(=O)N1CCC[C@@H]1C(=O)N[C@@H](CCC(=O)O)C(=O)N[C@@H](Cc1ccccc1)C(=O)N[C@@H](CC(C)C)C(=O)N[C@@H](Cc1ccccc1)C(=O)N[C@@H](CC(N)=O)C(=O)N[C@@H](CCCCN)C(=O)N1CCC[C@H]1C(=O)N[C@@H](Cc1ccccc1)C(=O)N[C@H](C(=O)N[C@@H](Cc1ccccc1)C(=O)O)C(C)C)[C@@H](C)CC [VIR-323, LEAIPMGIPpEFLFNKPFVF] (H-LEAIPMGIP[dP]EFLFNKPFVF-OH) | 6.03
CC[C@H](C)[C@H](NC(=O)[C@H](C)NC(=O)[C@H](CCC(=O)O)NC(=O)[C@@H](N)CC(C)C)C(=O)N1CCC[C@H]1C(=O)N[C@@H](CS)C(=O)N[C@@H](CO)C(=O)N[C@H](C(=O)N1CCC[C@H]1C(=O)N1CCC[C@@H]1C(=O)N[C@@H](CS)C(=O)N[C@H](C(=O)N[C@@H](Cc1ccccc1)C(=O)N[C@@H](Cc1ccccc1)C(=O)NCC(=O)N[C@@H](CCCCN)C(=O)N1CCC[C@H]1C(=O)N[C@@H](Cc1ccccc1)C(=O)N[C@H](C(=O)N[C@@H](Cc1ccccc1)C(=O)O)C(C)C)C(C)C)[C@@H](C)CC [VIR-350, LEAIPCSIPpCVFFGKPFVF] (H-LEAIPCSIP[dP]CVFFGKPFVF-OH) | 6.70
CC[C@H](C)[C@H](NC(=O)[C@@H]1CCCN1C(=O)[C@@H](NC(=O)[C@H](CC(=O)O)NC(=O)[C@H](CCC(=O)O)NC(=O)[C@@H](N)CC(C)C)[C@@H](C)CC)C(=O)NCC(=O)N[C@H](C(=O)N1CCC[C@H]1C(=O)N1CCC[C@@H]1C(=O)N[C@@H](CCC(=O)O)C(=O)N[C@@H](Cc1ccccc1)C(=O)N[C@@H](CC(C)C)C(=O)N[C@@H](Cc1ccccc1)C(=O)N[C@@H](CC(N)=O)C(=O)N[C@@H](CCCCN)C(=O)N1CCC[C@H]1C(=O)N[C@@H](Cc1ccccc1)C(=O)N[C@H](C(=O)N[C@@H](Cc1ccccc1)C(=O)O)C(C)C)[C@@H](C)CC [VIR-479, LEDIPIGIPpEFLFNKPFVF] (H-LEDIPIGIP[dP]EFLFNKPFVF-OH) | 6.32
CC[C@H](C)[C@H](NC(=O)[C@@H]1CCCN1C(=O)[C@@H](NC(=O)[C@H](C)NC(=O)[C@H](CCC(=O)O)NC(=O)[C@@H](N)CC(C)C)[C@@H](C)CC)C(=O)N[C@@H](CO)C(=O)N[C@H](C(=O)N1CCC[C@H]1C(=O)N1CCC[C@@H]1C(=O)N[C@@H](CCC(=O)O)C(=O)N[C@H](C(=O)N[C@@H](C)C(=O)N[C@@H](Cc1ccccc1)C(=O)N[C@@H](CC(N)=O)C(=O)N[C@@H](CCCCN)C(=O)N1Cc2ccccc2C[C@H]1C(=O)N[C@@H](Cc1ccccc1)C(=O)N[C@H](C(=O)N[C@@H](Cc1ccccc1)C(=O)O)C(C)C)C(C)C)[C@@H](C)CC [VIR-447, LEAIPISIPpEVAFNK(L-Tic)FVF] (H-LEAIPISIP[dP]EVAFNK[Tic]FVF-OH) | 6.21
CC[C@H](C)[C@H](NC(=O)[C@H](C)NC(=O)[C@H](CCC(=O)O)NC(=O)[C@@H](N)CC(C)C)C(=O)N1CCC[C@H]1C(=O)N[C@H]1CSSC[C@@H](C(=O)N[C@@H](CC(C)C)C(=O)N[C@@H](C)C(=O)N[C@@H](Cc2ccccc2)C(=O)N[C@@H](C)C(=O)N[C@@H](CCCCN)C(=O)N2CCC[C@H]2C(=O)N[C@@H](Cc2ccccc2)C(=O)N[C@H](C(=O)N[C@@H](Cc2ccccc2)C(=O)O)C(C)C)NC(=O)[C@@H]2CCCN2C(=O)[C@@H]2CCCN2C(=O)[C@H]([C@@H](C)CC)NC(=O)[C@H](CO)NC1=O [VIR-346] (H-LEAIPCSIPPCLAFAKPFVF-OH; disulfide 6-11) | 6.27
